In patent publication US20250230193A1, “CYCLIC COMPOUND HAVING SELECTIVE KRAS INHIBITORY EFFECT ON HRAS AND NRAS” (CHUGAI SEIYAKU KABUSHIKI KAISHA, priority 2022, published 2025):

Tests used:
[1] = molecular target: GDP-bound NRAS wild-type protein (Homo sapiens, UniProt P01111); test: Binding to NRAS by surface plasmon resonance (SPR), Single Cycle Kinetics; conditions: KD ratio, GDP-bound NRAS wild-type vs GDP-bound KRAS wild-type, SPR
[2] = molecular target: GDP-bound HRAS wild-type protein (Homo sapiens, UniProt P01112); test: Binding to HRAS by surface plasmon resonance (SPR), Single Cycle Kinetics; conditions: KD ratio, GDP-bound HRAS wild-type vs GDP-bound KRAS wild-type, SPR
Chain of GDP-bound HRAS wild-type protein (P01112 whole entry): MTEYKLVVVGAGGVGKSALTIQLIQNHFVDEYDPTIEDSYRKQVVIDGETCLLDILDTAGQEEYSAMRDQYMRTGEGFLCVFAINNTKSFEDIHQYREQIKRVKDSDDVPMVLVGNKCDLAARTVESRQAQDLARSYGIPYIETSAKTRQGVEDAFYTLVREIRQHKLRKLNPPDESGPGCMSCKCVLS

Chain of GDP-bound NRAS wild-type protein (P01111 whole entry): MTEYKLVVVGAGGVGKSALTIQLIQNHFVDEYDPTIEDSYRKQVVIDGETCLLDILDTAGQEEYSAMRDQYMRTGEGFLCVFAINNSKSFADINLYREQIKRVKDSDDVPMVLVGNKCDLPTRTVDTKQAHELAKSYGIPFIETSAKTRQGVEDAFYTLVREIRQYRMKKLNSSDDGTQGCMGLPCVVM

Row | SMILES | NRAS/KRAS (ratio of KD value with respect to NRAS to KD value with respect to KRAS) [1] | HRAS/KRAS (ratio of KD value with respect to HRAS to KD value with respect to KRAS) [2]
1 | CCO[C@@H]1C[C@H]2C(=O)NC3(CCC3)C(=O)N(C)[C@@H](C3CCCC3)C(=O)N(CC)[C@H](C(=O)N3CCOCC3)CC(=O)N(C)[C@@H](CO)C(=O)N[C@@H]([C@@H](C)CC)C(=O)N(C)CC(=O)N(C)[C@H]3CCCCCN(C3=O)[C@@H](Cc3ccc(C(F)(F)F)cc3)C(=O)N(C)CC(=O)N[C@@H](CCc3cc(F)c(C(F)(F)F)c(F)c3)C(=O)N2C1 [PP0945] | B (a compound having 3 or more and less than 10 is denoted as B) | A (a compound having 10 or more and less than 20 is denoted as A)
2 | CCO[C@@H]1C[C@H]2C(=O)NC3(CCC3)C(=O)N(C)[C@@H](C3CCCC3)C(=O)N(CC)[C@H](C(=O)N3CCOCC3)CC(=O)N(C)[C@@H](COC)C(=O)N[C@@H]([C@@H](C)CC)C(=O)N(C)CC(=O)N(C)[C@H]3CCCCCN(C3=O)[C@@H](Cc3ccc(C(F)(F)F)cc3)C(=O)N(C)CC(=O)N[C@@H](CCc3cc(F)c(C(F)(F)F)c(F)c3)C(=O)N2C1 [PP0946] | A (a compound having 10 or more and less than 20 is denoted as A) | B (a compound having 3 or more and less than 10 is denoted as B)
3 | CCO[C@@H]1C[C@H]2C(=O)NC3(CCC3)C(=O)N(C)[C@@H](C3CCCC3)C(=O)N(CC)[C@H](C(=O)N3CCOCC3)CC(=O)N(C)[C@@H](CCOC)C(=O)N[C@@H]([C@@H](C)CC)C(=O)N(C)CC(=O)N(C)[C@H]3CCCCCN(C3=O)[C@@H](Cc3ccc(C(F)(F)F)cc3)C(=O)N(C)CC(=O)N[C@@H](CCc3cc(F)c(C(F)(F)F)c(F)c3)C(=O)N2C1 [PP0947] | A (a compound having 10 or more and less than 20 is denoted as A) | A (a compound having 10 or more and less than 20 is denoted as A)
4 | CCO[C@@H]1C[C@H]2C(=O)NC3(CCC3)C(=O)N(C)[C@@H](C3CCCC3)C(=O)N(CC)[C@H](C(=O)N3CCOCC3)CC(=O)N(C)[C@@H](CCC(F)F)C(=O)N[C@@H]([C@@H](C)CC)C(=O)N(C)CC(=O)N(C)[C@H]3CCCCCN(C3=O)[C@@H](Cc3ccc(C(F)(F)F)cc3)C(=O)N(C)CC(=O)N[C@@H](CCc3cc(F)c(C(F)(F)F)c(F)c3)C(=O)N2C1 [PP0948] | A (a compound having 10 or more and less than 20 is denoted as A) | A (a compound having 10 or more and less than 20 is denoted as A)
5 | CCO[C@@H]1C[C@H]2C(=O)NC3(CCC3)C(=O)N(C)[C@@H](C3CCCC3)C(=O)N(CC)[C@H](C(=O)N3CCOCC3)CC(=O)N(C)[C@@H](CCC(Cl)Cl)C(=O)N[C@@H]([C@@H](C)CC)C(=O)N(C)CC(=O)N(C)[C@H]3CCCCCN(C3=O)[C@@H](Cc3ccc(C(F)(F)F)cc3)C(=O)N(C)CC(=O)N[C@@H](CCc3cc(F)c(C(F)(F)F)c(F)c3)C(=O)N2C1 [PP0949] | A (a compound having 10 or more and less than 20 is denoted as A) | A (a compound having 10 or more and less than 20 is denoted as A)
6 | CCO[C@@H]1C[C@H]2C(=O)NC3(CCC3)C(=O)N(C)[C@@H](C3CCCC3)C(=O)N(CC)[C@H](C(=O)N3CCOCC3)CC(=O)N(C)[C@@H](Cc3ccccc3)C(=O)N[C@@H]([C@@H](C)CC)C(=O)N(C)CC(=O)N(C)[C@H]3CCCCCN(C3=O)[C@@H](Cc3ccc(C(F)(F)F)cc3)C(=O)N(C)CC(=O)N[C@@H](CCc3cc(F)c(C(F)(F)F)c(F)c3)C(=O)N2C1 [PP0950] | A (a compound having 10 or more and less than 20 is denoted as A) | B (a compound having 3 or more and less than 10 is denoted as B)
7 | CCO[C@@H]1C[C@H]2C(=O)NC3(CCC3)C(=O)N(C)[C@@H](C3CCCC3)C(=O)N(CC)[C@H](C(=O)N3CCOCC3)CC(=O)N(C)[C@@H](CCc3ccccc3)C(=O)N[C@@H]([C@@H](C)CC)C(=O)N(C)CC(=O)N(C)[C@H]3CCCCCN(C3=O)[C@@H](Cc3ccc(C(F)(F)F)cc3)C(=O)N(C)CC(=O)N[C@@H](CCc3cc(F)c(C(F)(F)F)c(F)c3)C(=O)N2C1 [PP0953] | A (a compound having 10 or more and less than 20 is denoted as A) | A (a compound having 10 or more and less than 20 is denoted as A)
8 | CC[C@H](C)[C@@H]1NC(=O)[C@H](CC(C)C)N(C)C(=O)C[C@@H](C(=O)N2CCOCC2)N(CC)C(=O)[C@H](C2CCCC2)N(C)C(=O)C2(CCC2)NC(=O)[C@@H]2CC(F)(F)CN2C(=O)[C@H](CCc2cc(F)c(C(F)(F)F)c(F)c2)NC(=O)CN(C)C(=O)[C@H](Cc2ccc(C(F)(F)F)cc2)N2CCCCC[C@@H](C2=O)N(C)C(=O)CN(C)C1=O [PP0954] | A (a compound having 10 or more and less than 20 is denoted as A) | A (a compound having 10 or more and less than 20 is denoted as A)
9 | CC[C@H](C)[C@@H]1NC(=O)[C@H](CC(C)C)N(C)C(=O)C[C@@H](C(=O)N2CCOCC2)N(CC)C(=O)[C@H](C2CCCC2)N(C)C(=O)C2(CCC2)NC(=O)[C@@H]2[C@H](O)CCN2C(=O)[C@H](CCc2cc(F)c(C(F)(F)F)c(F)c2)NC(=O)CN(C)C(=O)[C@H](Cc2ccc(C(F)(F)F)cc2)N2CCCCC[C@@H](C2=O)N(C)C(=O)CN(C)C1=O [PP0955] | A (a compound having 10 or more and less than 20 is denoted as A) | A (a compound having 10 or more and less than 20 is denoted as A)
10 | CCO[C@@H]1C[C@H]2C(=O)NC3(CC=CC3)C(=O)N(C)[C@@H](C3CCCC3)C(=O)N(CC)[C@H](C(=O)N3CCOCC3)CC(=O)N(C)[C@@H](CC(C)C)C(=O)N[C@@H]([C@@H](C)CC)C(=O)N(C)CC(=O)N(C)[C@H]3CCCCCN(C3=O)[C@@H](Cc3ccc(C(F)(F)F)cc3)C(=O)N(C)CC(=O)N[C@@H](CCc3cc(F)c(C(F)(F)F)c(F)c3)C(=O)N2C1 [PP0956] | A (a compound having 10 or more and less than 20 is denoted as A) | A (a compound having 10 or more and less than 20 is denoted as A)
11 | CCO[C@@H]1C[C@H]2C(=O)NC(C)(C)C(=O)N(C)[C@@H](C3CCCC3)C(=O)N(CC)[C@H](C(=O)N3CCOCC3)CC(=O)N(C)[C@@H](CC(C)C)C(=O)N[C@@H]([C@@H](C)CC)C(=O)N(C)CC(=O)N(C)[C@H]3CCCCCN(C3=O)[C@@H](Cc3ccc(C(F)(F)F)cc3)C(=O)N(C)CC(=O)N[C@@H](CCc3cc(F)c(C(F)(F)F)c(F)c3)C(=O)N2C1 [PP0958] | B (a compound having 3 or more and less than 10 is denoted as B) | B (a compound having 3 or more and less than 10 is denoted as B)
12 | CC[C@H](C)[C@@H]1NC(=O)[C@H](CC)N(C)C(=O)C[C@@H](C(=O)N2CCOCC2)N(C)C(=O)[C@H](C2CCCC2)N(C)C(=O)C2(CCCC2)NC(=O)[C@@H]2CCCN2C(=O)[C@H](CCc2ccc(C(F)(F)F)c(Cl)c2)NC(=O)CN(C)C(=O)[C@H](Cc2ccc(F)cc2)N2CCCCC[C@@H](C2=O)N(C)C(=O)CN(C)C1=O [PP0959] | B (a compound having 3 or more and less than 10 is denoted as B) | B (a compound having 3 or more and less than 10 is denoted as B)
13 | CC[C@H](C)[C@@H]1NC(=O)[C@H](COC)N(C)C(=O)C[C@@H](C(=O)N2CCOCC2)N(C)C(=O)[C@H](C2CCCC2)N(C)C(=O)C2(CCCC2)NC(=O)[C@@H]2CCCN2C(=O)[C@H](CCc2ccc(C(F)(F)F)c(Cl)c2)NC(=O)CN(C)C(=O)[C@H](Cc2ccc(F)cc2)N2CCCCC[C@@H](C2=O)N(C)C(=O)CN(C)C1=O [PP0960] | B (a compound having 3 or more and less than 10 is denoted as B) | B (a compound having 3 or more and less than 10 is denoted as B)
14 | CC[C@H](C)[C@@H]1NC(=O)[C@H](Cc2ccccc2)N(C)C(=O)C[C@@H](C(=O)N2CCOCC2)N(C)C(=O)[C@H](C2CCCC2)N(C)C(=O)C2(CCCC2)NC(=O)[C@@H]2CCCN2C(=O)[C@H](CCc2ccc(C(F)(F)F)c(Cl)c2)NC(=O)CN(C)C(=O)[C@H](Cc2ccc(F)cc2)N2CCCCC[C@@H](C2=O)N(C)C(=O)CN(C)C1=O [PP0961] | B (a compound having 3 or more and less than 10 is denoted as B) | B (a compound having 3 or more and less than 10 is denoted as B)
15 | CC[C@H](C)[C@@H]1NC(=O)[C@H](Cc2cccc(F)c2)N(C)C(=O)C[C@@H](C(=O)N2CCOCC2)N(C)C(=O)[C@H](C2CCCC2)N(C)C(=O)C2(CCCC2)NC(=O)[C@@H]2CCCN2C(=O)[C@H](CCc2ccc(C(F)(F)F)c(Cl)c2)NC(=O)CN(C)C(=O)[C@H](Cc2ccc(F)cc2)N2CCCCC[C@@H](C2=O)N(C)C(=O)CN(C)C1=O [PP0962] | B (a compound having 3 or more and less than 10 is denoted as B) | B (a compound having 3 or more and less than 10 is denoted as B)
